The NIST ThermoML archive (doi:10.1016/j.fluid.2014.04.002)

Assays:
[1] = refractive index (Na D-line) (dimensionless); conditions: 101.33 kPa, Liquid, Standard Abbe refractometry
[2] = 101 kPa, Liquid; for viscosity: Concentric cylinders viscometry; for mass density: Vibrating tube method
[3] = refractive index (Na D-line) (dimensionless); xn = mol fraction of the nth substance listed; conditions: 101 kPa, Liquid, Standard Abbe refractometry, x2 = 0
[4] = xn = mol fraction of the nth substance listed; conditions: 101 kPa, Liquid, x2 = 0; for viscosity: Concentric cylinders viscometry; for mass density: Vibrating tube method

CCOC(=O)C(C)O (racemic) [DL-ethyl lactate]
Conditions | mass density, [2] [kg/m3] | refractive index, [1] | viscosity, [2] [mPa·s]
288.15 K | 1039.28 | 1.41537 | 3.207
293.15 K | 1033.84 | 1.41307 | 2.75
298.15 K | 1028.39 | 1.41076 | 2.39
303.15 K | 1022.92 | 1.40843 | 2.097
308.15 K | 1017.42 | 1.4061 | 1.858
313.15 K | 1011.9 | 1.40374 | 1.658
318.15 K | 1006.36 | 1.40136 | 1.491
323.15 K | 1000.79 | 1.39898 | 1.349

CC(O)CO (stereo unspecified) [1,2-propanediol]
Conditions | mass density, [2] [kg/m3] | refractive index, [1] | viscosity, [2] [mPa·s]
288.15 K | 1039.87 | 1.43437 | 82.54
293.15 K | 1036.25 | 1.4327 | 56.62
298.15 K | 1032.59 | 1.43102 | 44.03
303.15 K | 1028.88 | 1.42934 | 33.16
308.15 K | 1025.14 | 1.42764 | 25.45
313.15 K | 1021.35 | 1.42591 | 19.85
318.15 K | 1017.52 | 1.4242 | 15.73
323.15 K | 1013.66 | 1.42246 | 12.64

CC(O)CO (stereo unspecified) [1,2-propanediol] + CCOC(=O)C(C)O
Conditions | mass density, [4] [kg/m3] | refractive index, [3] | viscosity, [4] [mPa·s]
288.15 K | 1039.87 | 1.43437 | 82.54
293.15 K | 1036.25 | 1.4327 | 56.62
298.15 K | 1032.59 | 1.43102 | 44.03
303.15 K | 1028.88 | 1.42934 | 33.16
308.15 K | 1025.14 | 1.42764 | 25.45
313.15 K | 1021.35 | 1.42591 | 19.85
318.15 K | 1017.52 | 1.4242 | 15.73
323.15 K | 1013.66 | 1.42246 | 12.64

COCCOCCOCCOCCOC [2,5,8,11,14-pentaoxapentadecane]
Conditions | mass density, [2] [kg/m3] | refractive index, [1] | viscosity, [2] [mPa·s]
288.15 K | 1016.7 | 1.43553 | 4.353
293.15 K | 1012.06 | 1.43338 | 3.795
298.15 K | 1007.42 | 1.43123 | 3.348
303.15 K | 1002.79 | 1.42906 | 2.983
308.15 K | 998.153 | 1.42697 | 2.668
313.15 K | 993.523 | 1.42447 | 2.407
318.15 K | 988.892 | 1.42206 | 2.185
323.15 K | 984.262 | 1.41985 | 2.003
